From the CheMixHub viscosity set

Assay: xn = mol fraction of the nth substance listed

OCCCl + CCCCCCO
viscosity [mPa·s], 101.33 kPa
Conditions | x1 = 0.097 | x1 = 0.1953 | x1 = 0.2962 | x1 = 0.3953 | x1 = 0.5314 | x1 = 0.5962 | x1 = 0.7121 | x1 = 0.7968 | x1 = 0.8982
298.15 K | 3.93 | 3.7 | 3.544 | 3.406 | 3.241 | 3.175 | 3.057 | 2.983 | 2.921
303.15 K | 3.33 | 3.18 | 3.068 | 2.909 | 2.78 | 2.718 | 2.615 | 2.551 | 2.529
308.15 K | 2.824 | 2.68 | 2.572 | 2.494 | 2.38 | 2.329 | 2.276 | 2.237 | 2.208

CC(C)C#N + c1ccccc1
viscosity [mPa·s], 101 kPa
Conditions | x2 = 0.1007 | x2 = 0.2057 | x2 = 0.307 | x2 = 0.3954 | x2 = 0.4991 | x2 = 0.5899 | x2 = 0.6925 | x2 = 0.7959 | x2 = 0.8965
303.15 K | 0.459 | 0.458 | 0.46 | 0.465 | 0.472 | 0.483 | 0.497 | 0.516 | 0.539
308.15 K | 0.43 | 0.432 | 0.432 | 0.434 | 0.442 | 0.451 | 0.462 | 0.481 | 0.498

CCOC(=O)CCC(=O)OCC + CC(C)CCO
viscosity [mPa·s], 100 kPa
Conditions | 293.15 K | 298.15 K | 313.15 K
x1 = 0.5 | – | 2.025 | –
x1 = 0.7999 | 2.455 | – | 1.635

CCCCCCCCCCC + CCCCCC
viscosity [mPa·s]
Conditions | 293.15 K | 298.15 K | 303.15 K | 308.15 K | 313.15 K | 318.15 K | 323.15 K
100 kPa, x2 = 0.1021 | 1.036 | 0.958 | 0.89 | 0.828 | 0.773 | 0.724 | 0.68
100 kPa, x2 = 0.1994 | 0.934 | 0.867 | 0.804 | 0.751 | 0.704 | 0.662 | 0.623
100 kPa, x2 = 0.306 | 0.819 | 0.763 | 0.712 | 0.668 | 0.627 | 0.591 | 0.558
100 kPa, x2 = 0.4014 | 0.731 | 0.684 | 0.64 | 0.602 | 0.567 | 0.535 | 0.507
100 kPa, x2 = 0.4991 | 0.646 | 0.606 | 0.57 | 0.538 | 0.508 | 0.481 | 0.456
100 kPa, x2 = 0.601 | 0.563 | 0.53 | 0.5 | 0.473 | 0.449 | 0.426 | 0.406
100 kPa, x2 = 0.7028 | 0.489 | 0.462 | 0.438 | 0.415 | 0.395 | 0.377 | 0.36
100 kPa, x2 = 0.7989 | 0.424 | 0.402 | 0.383 | 0.365 | 0.348 | 0.333 | 0.319
100 kPa, x2 = 0.9 | 0.364 | 0.347 | 0.331 | 0.315 | 0.302 | 0.292 | 0.28
101.33 kPa, x2 = 0.1036 | – | 0.963 | – | – | – | – | –
101.33 kPa, x2 = 0.1988 | – | 0.876 | – | – | – | – | –
101.33 kPa, x2 = 0.2999 | – | 0.7746 | – | – | – | – | –
101.33 kPa, x2 = 0.4051 | – | 0.6933 | – | – | – | – | –
101.33 kPa, x2 = 0.5076 | – | 0.609 | – | – | – | – | –
101.33 kPa, x2 = 0.606 | – | 0.5391 | – | – | – | – | –
101.33 kPa, x2 = 0.7068 | – | 0.4643 | – | – | – | – | –
101.33 kPa, x2 = 0.8048 | – | 0.4044 | – | – | – | – | –
101.33 kPa, x2 = 0.9022 | – | 0.3552 | – | – | – | – | –
